Source: PubChem BioAssay (NCI)
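Interpolation was linear, between the two tested concentrations surrounding the appropriate level; five concentrations were tested over 48 hours in 96-well plates. At the TGI there is no net growth.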

Columns and labels:
Assay in all cases: growth of human tumour cells (NCI), 48 h
786-0 renal = test system: 786-0 renal
A498 renal = test system: A498 renal
A549 NSCLC = test system: A549 NSCLC
ACHN renal = test system: ACHN renal
BT-549 breast = test system: BT-549 breast
CAKI-1 renal = test system: CAKI-1 renal
CCRF-CEM leukemia = test system: CCRF-CEM leukemia
COLO 205 colon = test system: COLO 205 colon
DU-145 prostate = test system: DU-145 prostate
EKVX NSCLC = test system: EKVX NSCLC
HCT-116 colon = test system: HCT-116 colon
HCT-15 colon = test system: HCT-15 colon
HL-60(TB) leukemia = test system: HL-60(TB) leukemia
HOP-62 NSCLC = test system: HOP-62 NSCLC
HOP-92 NSCLC = test system: HOP-92 NSCLC
HS 578T breast = test system: HS 578T breast
HT29 colon = test system: HT29 colon
IGROV1 ovarian = test system: IGROV1 ovarian
K-562 leukemia = test system: K-562 leukemia
KM12 colon = test system: KM12 colon
LOX IMVI melanoma = test system: LOX IMVI melanoma
M14 melanoma = test system: M14 melanoma
MALME-3M melanoma = test system: MALME-3M melanoma
MCF7 breast = test system: MCF7 breast
MDA-MB-231 breast = test system: MDA-MB-231 breast
MDA-MB-435 = test system: MDA-MB-435
MDA-N = test system: MDA-N
MOLT-4 leukemia = test system: MOLT-4 leukemia
NCI-H226 lung = test system: NCI-H226 lung
NCI-H23 lung = test system: NCI-H23 lung
NCI-H460 lung = test system: NCI-H460 lung
NCI-H522 lung = test system: NCI-H522 lung
NCI/ADR-RES ovarian = test system: NCI/ADR-RES ovarian
OVCAR-3 ovarian = test system: OVCAR-3 ovarian
OVCAR-4 ovarian = test system: OVCAR-4 ovarian
OVCAR-5 ovarian = test system: OVCAR-5 ovarian
OVCAR-8 ovarian = test system: OVCAR-8 ovarian
PC-3 prostate = test system: PC-3 prostate
RPMI-8226 leukemia = test system: RPMI-8226 leukemia
RXF 393 renal = test system: RXF 393 renal
SF-268 CNS = test system: SF-268 CNS
SF-295 CNS = test system: SF-295 CNS
SF-539 CNS = test system: SF-539 CNS
SK-MEL-2 melanoma = test system: SK-MEL-2 melanoma
SK-MEL-28 melanoma = test system: SK-MEL-28 melanoma
SK-MEL-5 melanoma = test system: SK-MEL-5 melanoma
SK-OV-3 ovarian = test system: SK-OV-3 ovarian
SN12C renal = test system: SN12C renal
SNB-19 CNS = test system: SNB-19 CNS
SNB-75 CNS = test system: SNB-75 CNS
SW-620 colon = test system: SW-620 colon
T-47D breast = test system: T-47D breast
TK-10 renal = test system: TK-10 renal
U251 CNS = test system: U251 CNS
UACC-257 melanoma = test system: UACC-257 melanoma
UACC-62 melanoma = test system: UACC-62 melanoma
UO-31 renal = test system: UO-31 renal
HCC-2998 colon = test system: HCC-2998 colon

Measured: TGI

O=C1NC(N/N=C/c2c[nH]c3ccccc23)=N/C1=C\c1cccs1
71.9 µM: A498 renal
77.3 µM: OVCAR-3 ovarian
60.6 µM: HL-60(TB) leukemia
not listed: HCC-2998 colon
> 100 µM: all other assays above

CCC12CCCN3CCc4c(n(c5ccccc45)C(O)(C(=O)OC)C1)C32 (configuration not stated)
not listed: HOP-62 NSCLC | K-562 leukemia | RXF 393 renal
> 100 µM: all other assays above
